Source: patent publication US7824680B2, “Methods for inhibiting angiogenesis” (The Regents of the University of California, priority 2001, dated 2010)

System: mice
Experiment: Murine bFGF matrigel plug angiogenesis, lectin-FITC fluorescence
Format: in vivo
Settings: bFGF matrigel s.c. containing 25 μg/ml antibody or 1 mM peptide; 72 hours
Procedure: Angiogenesis was induced by subcutaneous injection of 400 μl of growth factor depleted matrigel supplemented 0.4 μg/ml bFGF and saline, 25 μg/ml function blocking anti-α4β1 antibodies or control antibodies. Alternatively, mice were injected with matrigel containing bFGF and 1 mM of the sequence EILDVPST (SEQ ID NO:52) or the control sequence EILEVPST (SEQ ID NO:53). After 72 hours, mice were injected with Bandiera Simplicifolia lectin-FITC conjugate. After 15 minutes, matrigel plugs were excised and homogenized. Fluorescence intensity within the lysed plug was determined and correlated with degree of angiogenesis as determined by standard immunohistochemical analyses.

Sequence: EILDVPST [peptide antagonist of integrin α4β1]
- growth factor-stimulated angiogenesis (fluorescence intensity within the lysed matrigel plug): selectively and specifically inhibited
